The values that follow come from patent US20130197088A1, “Compositions and Methods for Combinations of Oligoamines with 2-Difluoromethylornithine (DFMO)” (priority 2010, published 2013).

Series [1] addresses T1, ODC (Homo sapiens, UniProt P11926).
T1 sequence (P11926 1-461): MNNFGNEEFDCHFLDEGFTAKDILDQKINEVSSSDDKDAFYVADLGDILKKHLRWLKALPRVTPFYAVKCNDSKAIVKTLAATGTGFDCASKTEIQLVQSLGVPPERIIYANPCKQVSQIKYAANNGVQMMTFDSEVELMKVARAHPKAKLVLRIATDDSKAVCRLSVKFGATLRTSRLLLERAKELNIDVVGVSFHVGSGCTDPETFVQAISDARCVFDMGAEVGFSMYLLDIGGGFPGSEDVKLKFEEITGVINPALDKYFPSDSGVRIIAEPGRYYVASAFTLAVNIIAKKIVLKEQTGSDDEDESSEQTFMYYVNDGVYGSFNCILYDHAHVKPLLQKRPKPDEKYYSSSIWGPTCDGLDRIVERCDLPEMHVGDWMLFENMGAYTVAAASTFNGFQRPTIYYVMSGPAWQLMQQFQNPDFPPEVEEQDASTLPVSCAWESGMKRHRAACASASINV
Particulars: concentrations from 0.6 μM to 80 μM; cited from earlier work.

A further series deals with HCT116 cells. Nature of the series: Intracellular polyamine pools by high pressure liquid chromatography after DFMO / PG-11144 treatment. Type of series: cell-based, human. How it is done: DFMO (2- or α-difluoromethylornithine) can be obtained from Merrell Dow Pharmaceutical Inc. (Cincinnati, Ohio). Polyamine analogues are provided by Progen Pharmaceuticals Ltd. (Queensland, Australia). Stock solutions of each compound are diluted with medium to the desired concentrations for specific experiments. HCT116 colorectal carcinoma cells are maintained in McCoy's 5A medium supplemented with 9% FBS (Atlanta Biologicals, Lawrenceville, Ga.) and 1% penicillin/streptomycin (Mediatech, Manassas, Va.), and grown at 37° C. in 5% CO2 atmosphere. For experiments, HCT116 cells are first treated for 24 hours with 5 mM DFMO followed by another 24 hours treatment of replenished 5 mM DFMO and polyamine analogues in the indicated doses alone or simultaneously. Intracellular polyamine concentrations are determined by high pressure liquid chromatography.
A mixture of both D-enantiomer of DFMO and L-enantiomer of DFMO is used to generate data in Table 1.

Series [2] has as its system H3K4me2 at the promoter of SFRP2 in HCT116 cells. Kind of series: ChIP analysis of H3K4me2 at the SFRP2 promoter. Type of series: cell-based, human. Particulars: 2.5 μM PG-11144 alone. The protocol:
HCT116 cells are first treated for 24 hours with 5 mM DFMO followed by another 24 hours treatment of replenished 5 mM DFMO and 2.5 μM PG-11144 alone or simultaneously. Chromatin immunoprecipitation (CHIP) analysis is performed using EZ-chip kit (Millipore). In brief, cells are exposed to 1% formaldehyde to cross-link proteins, and two million cells are used for each CHIP assay. Antibodies against H3K4me2, and for control, H3 are used as indicated for immunoprecipitation of protein-DNA complexes. Quantitative ChIP is performed using qPCR on the MyiQ single color real-time PCR machine. The PCR primer sets used for amplification of precipitated SFRP2 promoter fragments are as follows: sense, 5′ CTCCCTCCCAGCCTGCCCATCTT (SEQ ID NO: 3); antisense, 5′ ACTGCCCACCATTTCCCCGTTTTG (SEQ ID NO: 4) (annealing at 61° C.). The relative enrichment of H3K4me2 for control samples is set to a value of 1.
Chromatin Immunoprecipitation (ChIP): CHIP analysis is performed using EZ-chip kit (Millipore) according to the manufacturer's instruction. In brief, cells are exposed to 1% formaldehyde to cross-link proteins, and two million cells are used for each CHIP assay. Antibody against H3 can be obtained from Abeam (Cambridge, Mass.) and antibody against H3K4me2 can be obtained from Millipore. Quantitative ChIP is performed using qPCR on the MyiQ single color real-time PCR machine. […]

Series [3] deals with HCT116 human colon tumors. Kind of series: Established tumors in nude mouse model. The format is in vivo. To be noted: PG-11144 alone, nude mice.
A further series concerns SFRP2 in HCT116 cells. Kind of series: Re-expression of aberrantly silenced SFRP2, qPCR. Type of series: cell-based, human. The protocol: HCT116 cells are first treated for 24 hour with 5 mM DFMO followed by another 24 hour treatment of replenished 5 mM DFMO and oligoamines (PG-11144 and PG-11150 for panel A, PG-11157, PG 11158 and PG-11159 for panel B) alone or simultaneously. RNA is extracted using TRIzol reagents and first-strand cDNA is synthesized using M-MLV reverse transcriptase with an oligo(dT) primer (Invitrogen). qPCR for SFRP2 is performed in a MyiQ single color real-time PCR machine with GAPDH as an internal control. The SFRP2 primers used for qPCR are: sense, 5′ AAGCCTGCAAAAATAAAAATGATG (SEQ ID NO: 1); antisense, 5′ TGTAAATGGTCTTGCTCTTGGTCT (SEQ ID NO: 2) (annealing at 53° C.). The quantified results are the mean of triplicate treatments. The transcript level for control samples was set to a value of 1. S.D. is indicated by the error bars.
HCT116 cells are first treated for 24 hours with 5 mM DFMO followed by another 24 hours treatment of replenished 5 mM DFMO and PG-11144 in the indicated doses alone or simultaneously. RNA isolation and qPCR are performed. The quantified results are the means of triplicate treatments with S.D. as indicated. The transcript level for control samples is set to a value of 1.
RNA Isolation and qPCR: RNA is extracted using TRIzol reagents (Invitrogen, Carlsbad, Calif.). First-strand cDNA is synthesized using M-MLV reverse transcriptase with an oligo(dT) primer (Invitrogen). qPCR is performed in a MyiQ single color real-time PCR machine (Bio-Rad, Hercules, Calif.) with GAPDH as an internal control. The SFRP2 primers used are: sense, 5′ AAGCCTGCAAAAATAAAAATGATG (SEQ ID NO: 1); antisense, 5′ TGTAAATGGTCTTGCTCTTGGTCT (SEQ ID NO: 2) (annealing at 53° C.).
(In general: Real-time PCR tracks product formation cycle by cycle.)

The conditions of series [4]: guinea pigs; cited from earlier work.
Series [5] deals with T1, ODC. Nature of the series: Inhibition of ODC activity by DFMO enantiomers. Type of series: biochemical. The protocol:
The use of D-DFMO or enriched D-isomer mixtures can overcome many of the problems associated with the use of racemic (50/50) D,L-DFMO. D-DFMO or enriched D-DFMO isomer mixtures may be administered at a dosage higher than a racemic mixture, due to lower anticipated toxicity associated with the D enantiomer. In three separate studies using concentrations from 0.6 μM to 80 μM D-, L-, and D,L-DFMO, the effective concentration level of each which inhibits 50% of the ODC activity (Ki) can be determined. Both enantiomers, as well as the racemic mixture, were inhibitory.

The subject of series [6] is colon adenomas and carcinomas. Particulars: animal models of colon carcinogenesis; cited from earlier work.
Series [7] concerns six human tumors (three mammary carcinomas, a malignant melanoma, a bladder carcinoma, an endocervical carcinoma). Particulars: after DFMO treatment; cited from earlier work.
For series [8], the system named is Egr1 and Oct4 genes in P19 embryonal carcinoma cells. Particulars: cited from earlier work.

Each structure is given as a SMILES string. “Also recorded” adds a separate entry of the source.

Take `NCCCC(N)(C(=O)O)C(F)F` (racemic) [D,L-DFMO]: the “Inhibition of ODC activity” value at ODC [1] is listed as “inhibitory”.

In the case of `CCNCCCCNCCCCNCCCCNCCCCNCC=CCNCCCCNCCCCNCCCCNCCCCNCC` (stereo in doubt) [PG-11144], the “Polyamines: Putresine” value in the series with HCT116 cells (PG-11144 0.5 μM, 24 h) worked out at 4.7 nmol/mg Protein; in the series on HCT116 cells (PG-11144 1 μM, 24 h), 4.7 nmol/mg Protein; in the series with HCT116 cells (PG-11144 2.5 μM, 24 h), 3.8 nmol/mg Protein; with HCT116 cells (PG-11144 5 μM, 24 h) it was 0.0 nmol/mg Protein; in the series with HCT116 cells (PG-11144 10 μM, 24 h) it was 0.0 nmol/mg Protein. In addition, the “Polyamines: Spermidine” value in the series on HCT116 cells (PG-11144 0.5 μM, 24 h) is on record as 9.1 nmol/mg Protein; in the series with HCT116 cells (PG-11144 1 μM, 24 h) it was 8.4 nmol/mg Protein; with HCT116 cells (PG-11144 2.5 μM, 24 h), 5.6 nmol/mg Protein; in the series with HCT116 cells (PG-11144 5 μM, 24 h), 4.2 nmol/mg Protein; in the series with HCT116 cells (PG-11144 10 μM, 24 h), 4.1 nmol/mg Protein. Also, the “Polyamines: Spermine” value with HCT116 cells (PG-11144 0.5 μM, 24 h) amounted to 11.2 nmol/mg Protein; in the series with HCT116 cells (PG-11144 1 μM, 24 h) it was 10.1 nmol/mg Protein; with HCT116 cells (PG-11144 2.5 μM, 24 h) it was 6.2 nmol/mg Protein; in the series with HCT116 cells (PG-11144 5 μM, 24 h) it was 4.9 nmol/mg Protein; in the series on HCT116 cells (PG-11144 10 μM, 24 h) it was 6.4 nmol/mg Protein. Besides, the “Promoter H3K4me2 levels (SFRP2 promoter, ChIP)” value in series [2] was “does not lead to”. Moreover, the “Antitumor activity on established tumors” value in series [3] was “effective in treating established tumors; also recorded: effective in shrinking established HCT116 human colon tumors”. The SFRP2 expression result with SFRP2 in HCT116 cells (2.5 μM PG-11144 alone) is “does not lead to increased SFRP2 expression”. For the same molecule, in the series on SFRP2 in HCT116 cells (5 μM PG-11144 with 5 mM DFMO), the “SFRP2 re-expression, synergy with DFMO (dose response)” value is “greatest synergy with DFMO”. For the same molecule, in the series on SFRP2 in HCT116 cells (PG-11144 concentrations higher than 5 μM with 5 mM DFMO), the “SFRP2 expression (dose response)” value is “less SFRP2 expression”.

As for `NCCC[C@@](N)(C(=O)O)C(F)F` [D-DFMO], the “Effect on auditory function (compound action potential, cochlear microphonic, cochlear potentials)” value in series [4] was “no significant effects”. For the same molecule, on ODC [5], the “Ki of D-DFMO relative to the L-form” value is listed as “four fold lower” and the “Ki of D-DFMO relative to the mixture” value came to 3 fold. In addition, the “Inhibition of ODC activity” value at ODC [1] is recorded as “inhibitory”.

Turning to `NCCC[C@](N)(C(=O)O)C(F)F` [DFMO, 2-difluoromethylornithine], in the series on HCT116 cells (DFMO 5 mM alone), the “Polyamines: Putresine” value turned out to be 0.0 nmol/mg Protein, the “Polyamines: Spermidine” value amounted to 0.0 nmol/mg Protein and the “Polyamines: Spermine” value stood at 13.9 nmol/mg Protein. Moreover, the “Number and size of colon adenomas and carcinomas” value in series [6] was “reduces the number and size of colon adenomas and carcinomas”. Moreover, in series [7], the “Growth of human tumors compared to control mice” value was “significantly decreased”.

Take `NCCC[C@](N)(C(=O)O)C(F)F` [L-DFMO]: the “Effect on auditory function (compound action potential, cochlear microphonic, cochlear potentials)” value in [4] was “significant disruption of normal cochlear potentials”. Moreover, the “Inhibition of ODC activity” value at ODC [1] is “inhibitory”.

Consider `N[C@@H]1C[C@H]1c1ccccc1` [tranylcypromine, (1R,2S)-2-phenylcyclopropan-1-amine], for which the “Effect on Egr1 and Oct4 gene transcription” value in [8] is “transcriptional de-repression”.
